System: Rattus norvegicus
[1] = developmental, oral, gavage, F, Wistar, generation: F1, F1: novel object test (time exploring both objects, trial 2) + F1: novel object test (time exploring familiar object, trial 2)
[2] = developmental, oral, gavage, M, Wistar, generation: F1, F1: active avoidance (shuttle box, conditioned avoidance response, 4th block) + F1: passive avoidance (avoidance latency) + F1: rotarod (…
[3] = developmental, oral, gavage, M, Wistar, generation: F1, F1: auditory startle reflex (peak latency) + F1: auditory startle reflex (pre-pulse inhibition peak latency) + F1: vocalization (number …
[4] = subchronic, duration: 3 months, oral, drinking water, M/F, Sprague-Dawley, Morris water maze (escape time, acquisition, day 1) + Morris water maze (escape time, acquisition, day 5)
[5] = subchronic, duration: 3 months, oral, drinking water, M/F, Sprague-Dawley, Morris water maze (escape time, acquisition, day 6)
[6] = subchronic, duration: 12 weeks, oral, drinking water, M, Sprague-Dawley, territorial aggression (ventral presenting posture events of stud male)
[7] = subchronic, duration: 30 days, oral, drinking water, M, Wistar, active avoidance (shuttle box, number of avoidances of conditioned shock stimulus)

[F-].[Na+] [Sodium fluoride]
NOEL (developmental, oral, gavage, F, Wistar, generation: F1, F1: auditory startle reflex (amplitude) + F1: auditory startle reflex (peak latency) + F1: auditory startle reflex (pre-pulse inhibition …): 2.26 mg/kg-day
LOEL [1]: 2.26 mg/kg-day
NOEL [1]: 1.13 mg/kg-day
LOEL (developmental, oral, gavage, M/F, Sprague-Dawley, generation: F1, F1: air righting + F1: Morris water maze (escape time, probe test, day 5) + F1: Morris water maze (platform crossing, probe test, day 5) + …): 3.44 mg/kg-day
NOEL (developmental, oral, gavage, M/F, Sprague-Dawley, generation: F1, F1: auditory startle (response to metal object sound) + F1: cliff avoidance): 3.44 mg/kg-day
NOEL (developmental, oral, gavage, M, Wistar, generation: F1, F1: active avoidance (shuttle box, conditioned avoidance response, 1st block) + F1: novel object test (time exploring both objects, trial 2…): 2.26 mg/kg-day
LOEL [2]: 2.26 mg/kg-day
NOEL [2]: 1.13 mg/kg-day
LOEL (developmental, oral, gavage, M, Wistar, generation: F1, F1: auditory startle reflex (amplitude)): 1.13 mg/kg-day
LOEL [3]: 2.26 mg/kg-day
NOEL [3]: 1.13 mg/kg-day
LOEL (developmental, oral, gavage, M, Wistar, generation: F1, F1: sexual behavior (mount/intromission frequency) + F1: sexual behavior (mount/intromission latency)): 1.13 mg/kg-day
LOEL (short-term, duration: 14 days, injection, intraperitoneal, M, Wistar, rotarod (endurance time)): 9.05 mg/kg-day
LOEL [4]: 1.36 mg/kg-day
NOEL [4]: 0.68 mg/kg-day
LOEL [5]: 3.27 mg/kg-day
NOEL [5]: 0.33 mg/kg-day
NOEL (subchronic, duration: 3 months, oral, drinking water, M/F, Sprague-Dawley, Morris water maze (platform crossing, probe test, day 7) + Morris water maze (time in target quadrant, probe test, day 7)): 3.27 mg/kg-day
LOEL (subchronic, duration: 3 months, oral, drinking water, M/F, Wistar, passive avoidance (step-down test, time to move from rubber mat to electrified bar, session 2, day 30) + passive avoidance (step-down test, …): 5.84 mg/kg-day
LOEL (subchronic, duration: 3 months, oral, drinking water, M, Sprague-Dawley, Morris water maze (escape time, acquisition, day 1) + Morris water maze (escape time, acquisition, day 11) + Morris water maze (escape time…): 7.52 mg/kg-day
NOEL (subchronic, duration: 3 months, oral, drinking water, M, Wistar, Morris water maze (entries into target quadrant, probe test, day 4) + Morris water maze (escape time, acquisition, day 2) + Morris water …): 3.34 mg/kg-day
LOEL (subchronic, duration: 3 months, oral, gavage, M/F, Sprague-Dawley, Morris water maze (escape time, acquisition day 1) + Morris water maze (escape time, acquisition, day 5)): 9.05 mg/kg-day
NOEL (subchronic, duration: 3 months, oral, gavage, M, Albino, open field (ambulation distance) + open field (ambulation time) + open field (immobility time) + open field, stereotypic events + open field…): 9.05 mg/kg-day
LOEL (subchronic, duration: 3 months, oral, gavage, M, Albino, open field (squares crossed)): 4.52 mg/kg-day
LOEL (subchronic, duration: 3 months, oral, gavage, M, Wistar, Y-maze (number of training runs to meet 90% learning standard, day 23) + Y-maze (number of training runs to meet 90% learning standard, day …): 6.67 mg/kg-day
NOEL (subchronic, duration: 12 weeks, oral, drinking water, M, Sprague-Dawley, sexual behavior (ejaculation latency) + territorial aggression (fights with stud male)): 18.8 mg/kg-day
LOEL (subchronic, duration: 12 weeks, oral, drinking water, M, Sprague-Dawley, sexual behavior (intromission latency) + sexual behavior (post-ejaculatory interval) + sexual behavior (time to first mount) + sexual …): 6.27 mg/kg-day
LOEL [6]: 18.8 mg/kg-day
NOEL [6]: 6.27 mg/kg-day
NOEL (subchronic, duration: 12 weeks, oral, gavage, Wistar, open field (ambulation distance, 12 wks) + open field (ambulation distance, 3 wks) + open field (ambulation events, 12 wks) + open field (…): 2.3 mg/kg-day
NOEL (subchronic, duration: 30 days, oral, drinking water, M/F, Wistar, activity cage (ambulatory events) + activity cage (head turning events) + activity cage (head turning time) + activity cage (rearing events…): 10.4 mg/kg-day
LOEL (subchronic, duration: 30 days, oral, drinking water, M/F, Wistar, activity cage (ambulatory time) + activity cage (rearing time) + activity cage (sitting events) + activity cage (sitting time) + activity …): 10.4 mg/kg-day
NOEL (subchronic, duration: 30 days, oral, drinking water, M, Wistar, T-maze (number of errors, retention phase)): 40 mg/kg-day
LOEL (subchronic, duration: 30 days, oral, drinking water, M, Wistar, T-maze (number of sessions to reach learning criterion)): 40 mg/kg-day
LOEL [7]: 4.87 mg/kg-day
NOEL [7]: 2.33 mg/kg-day
NOEL (subchronic, duration: 30 days, oral, drinking water, M, Wistar, active avoidance (shuttle box, number of escapes of conditioned shock stimulus) + active avoidance (shuttle box, number of failures to avoid…): 4.87 mg/kg-day
LOEL (subchronic, duration: 30 days, oral, drinking water, M, Wistar, dental fluorosis_0 degrees + dental fluorosis_1 degree + open field (squares crossed, test session)): 2.33 mg/kg-day
NOEL (subchronic, duration: 30 days, oral, drinking water, M, Wistar, open field (squares crossed, day 1 - minute 1) + open field (squares crossed, day 1 - minute 2) + open field (squares crossed, day 1) + open…): 6.67 mg/kg-day
NOEL (subchronic, duration: 30 days, oral, drinking water, M, Wistar, passive avoidance (exploration, number of crossings) + passive avoidance (exploration, time in small compartment)): 14.8 mg/kg-day
LOEL (subchronic, duration: 30 days, oral, drinking water, M, Wistar, passive avoidance (retention, number of crossings) + passive avoidance (retention, time in small compartment) + T-maze (exploratory activity…): 14.8 mg/kg-day
LOEL (subchronic, duration: 30 days, oral, drinking water, M, Wistar, passive avoidance (retention, time in small compartment) + T-maze (exploratory activity) + T-maze (number of correct choices) + T-maze (…): 14.8 mg/kg-day
LOEL (mg% thigh bone) (subchronic, duration: 30 days, oral, gavage, motor activity (spontaneous) + orienting reflex): 10.6
LOEL (subchronic, duration: 60 days, oral, drinking water, F, Wistar, activity cage (exploratory motor activity events) + rotarod (latency to fall, 14 rpm)): 111 mg/kg-day
LOEL (subchronic, duration: 60 days, oral, drinking water, F, Wistar, activity cage (motor activity events) + rotarod (latency to fall, 14 rpm)): 1.94 mg/L serum
LOEL (subchronic, duration: 60 days, oral, drinking water, Wistar, passive avoidance (retention, latency)): 1.8 mg/kg-day
LOEL (subchronic, duration: 60 days, oral, gavage, F, Wistar, activity cage (ambulation events)): 9.05 mg/kg-day
NOEL (subchronic, duration: 60 days, oral, gavage, F, Wistar, rotarod (latency to fall, 14 rpm)): 18.1 mg/kg-day
